Laboratory results: PMC3535830 (Bioorganic & medicinal chemistry letters, 2012)
Where two headings read alike, the source gives them in different places.

Tests used:
human M4 receptor [1] = target: T1, human M4 receptor (Homo sapiens, UniProt P08173); assay: human M4 positive allosteric modulator potency assay; type: cell-based; conditions: human M4 PAM; mean of at least 3 experiments
T1 sequence (P08173 1-479): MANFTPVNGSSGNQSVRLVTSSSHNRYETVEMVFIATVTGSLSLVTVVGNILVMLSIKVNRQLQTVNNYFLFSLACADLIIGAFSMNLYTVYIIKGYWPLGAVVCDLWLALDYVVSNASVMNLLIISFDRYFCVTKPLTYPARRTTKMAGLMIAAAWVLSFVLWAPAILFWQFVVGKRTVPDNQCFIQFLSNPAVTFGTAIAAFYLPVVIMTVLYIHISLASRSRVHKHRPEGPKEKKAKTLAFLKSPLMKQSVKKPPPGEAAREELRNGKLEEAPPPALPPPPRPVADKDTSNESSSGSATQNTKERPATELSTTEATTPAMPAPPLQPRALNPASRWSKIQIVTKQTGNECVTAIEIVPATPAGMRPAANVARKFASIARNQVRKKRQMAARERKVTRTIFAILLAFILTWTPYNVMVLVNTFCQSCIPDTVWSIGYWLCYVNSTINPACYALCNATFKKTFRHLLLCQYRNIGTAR

[2] = in vitro PK: predicted hepatic clearance, human; type: in vitro ADME
[3] = in vitro PK: predicted hepatic clearance, rat; type: in vitro ADME; conditions: for predicted clearance in the rat (CLHEP), in words: in vitro PK prediction; for rCLHEP: in vitro predicted hepatic clearance
[4] = rat equilibrium dialysis plasma protein binding; type: in vitro ADME; conditions: fraction unbound
hM2 = target: T2, hM2 (Homo sapiens, UniProt P08172); assay: muscarinic selectivity hM2; type: cell-based
T2 sequence (P08172 1-466): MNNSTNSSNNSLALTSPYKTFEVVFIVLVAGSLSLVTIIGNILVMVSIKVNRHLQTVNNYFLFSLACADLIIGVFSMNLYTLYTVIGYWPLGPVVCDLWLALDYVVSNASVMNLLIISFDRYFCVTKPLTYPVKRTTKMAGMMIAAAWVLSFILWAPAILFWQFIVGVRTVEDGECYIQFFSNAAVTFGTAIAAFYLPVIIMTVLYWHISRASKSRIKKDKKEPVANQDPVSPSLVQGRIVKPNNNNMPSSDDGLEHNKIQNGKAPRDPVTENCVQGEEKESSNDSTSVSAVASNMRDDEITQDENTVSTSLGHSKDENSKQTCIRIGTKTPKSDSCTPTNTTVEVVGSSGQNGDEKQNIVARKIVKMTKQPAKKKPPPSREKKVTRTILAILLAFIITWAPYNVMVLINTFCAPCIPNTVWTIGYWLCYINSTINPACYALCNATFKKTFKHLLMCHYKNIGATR

rM2 = target: T3, rM2 (Rattus norvegicus, UniProt P10980); assay: muscarinic selectivity rM2; type: cell-based
T3 sequence (P10980 1-466): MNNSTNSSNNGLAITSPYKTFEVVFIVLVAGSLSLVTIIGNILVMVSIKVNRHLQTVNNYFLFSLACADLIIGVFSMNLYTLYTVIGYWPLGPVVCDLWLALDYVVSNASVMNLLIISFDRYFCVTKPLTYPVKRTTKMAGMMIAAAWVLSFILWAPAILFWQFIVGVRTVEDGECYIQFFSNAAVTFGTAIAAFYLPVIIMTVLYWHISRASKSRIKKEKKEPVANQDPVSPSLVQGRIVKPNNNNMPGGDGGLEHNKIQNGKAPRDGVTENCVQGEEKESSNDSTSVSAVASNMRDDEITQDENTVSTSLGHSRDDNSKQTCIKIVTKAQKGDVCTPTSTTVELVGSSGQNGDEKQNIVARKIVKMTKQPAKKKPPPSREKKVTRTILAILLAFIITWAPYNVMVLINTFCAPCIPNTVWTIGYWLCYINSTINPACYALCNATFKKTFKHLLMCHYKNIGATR

[5] = system: other four mAChR subtypes (M1, M2, M3, M5); assay: selectivity against the other four mAChR subtypes; type: cell-based; conditions: read-out: activity against all four other mAChR subtypes
human M4 receptor [6] = target: T1, human M4 receptor; conditions: cited from earlier work
rat M4 receptor = target: T4, rat M4 receptor (Rattus norvegicus, UniProt P08485); conditions: read-out: rat M4 potency; cited from earlier work
T4 sequence (P08485 1-478): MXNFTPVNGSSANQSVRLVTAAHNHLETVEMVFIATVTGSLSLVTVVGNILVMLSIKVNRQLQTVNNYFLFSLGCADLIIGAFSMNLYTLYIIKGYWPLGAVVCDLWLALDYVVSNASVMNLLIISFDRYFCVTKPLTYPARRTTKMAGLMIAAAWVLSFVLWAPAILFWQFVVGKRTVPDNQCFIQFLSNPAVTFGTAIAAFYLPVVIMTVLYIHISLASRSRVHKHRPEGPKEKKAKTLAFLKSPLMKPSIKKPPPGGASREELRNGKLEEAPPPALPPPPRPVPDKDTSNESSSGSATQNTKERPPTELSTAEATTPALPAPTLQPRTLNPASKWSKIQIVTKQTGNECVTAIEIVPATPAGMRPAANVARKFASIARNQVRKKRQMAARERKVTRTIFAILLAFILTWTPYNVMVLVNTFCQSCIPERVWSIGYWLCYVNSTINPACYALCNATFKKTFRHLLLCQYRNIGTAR

pEC50 ± SEM (human M4 receptor [1]) | Structure (SMILES) | other results
6.75 ± 0.14 | Cc1nc2sc(C(=O)NCc3ccc(Cl)cc3)c(N)c2c(C)c1Cl [Compound 23] | 
6.60 ± 0.07 | Cc1nc2sc(C(=O)NCc3nccs3)c(N)c2c(C)c1Cl [Compound 24] | 
5.76 ± 0.27 | Cc1nc2sc(C(=O)NCc3ccc(C(F)(F)F)cc3)c(N)c2c(C)c1Cl [Compound 25] | 
7.28 ± 0.07 | Cc1nc2sc(C(=O)NC3CCOC3)c(N)c2c(C)c1Cl (centres unmarked) [Compound 29] | 
5.70 ± 0.24 | Cc1nc2sc(C(=O)NC3COC3)c(N)c2c(C)c1Cl [Compound 30] | 
6.83 ± 0.06 | Cc1nc2sc(C(=O)NC(C)C)c(N)c2c(C)c1Cl [Compound 31] | 
6.65 ± 0.03 | Cc1nc2sc(C(=O)NC3CCCCC3)c(N)c2c(C)c1Cl [Compound 32] | 
6.51 ± 0.05 | Cc1nc2sc(C(=O)NC(C)(C)C)c(N)c2c(C)c1Cl [Compound 34] | 
6.03 ± 0.07 | Cc1nc2sc(C(=O)NCCC3CCCN3C)c(N)c2c(C)c1Cl (centres unmarked) [Compound 36] | 

Further lines, the compound ahead of its results:

Structure (SMILES) | pEC50 ± SEM (human M4 receptor [1]) | other results
Cc1nc2sc(C(=O)NCc3cccc(F)c3F)c(N)c2c(C)c1Cl [Compound 2] | 6.91 ± 0.05 | 
Cc1nc2sc(C(=O)NC3CC3)c(N)c2c(C)c1Cl [Compound 3] | 7.11 ± 0.32 | hCLHEP [2]: 13.9 mL/min/kg; predicted clearance in the rat (CLHEP), in words [3]: high clearance; rCLHEP [3]: 51.0 mL/min/kg; rPPB (%fu) [4]: ~ 2%; EC50 (hM2): ~600 nM; EC50 (rM2): ~600 nM
Cc1nc2sc(C(=O)NCc3ccncc3)c(N)c2c(C)c1Cl [Compound 4, 3-amino-5-chloro-4,6-dimethyl-N-(pyridinyl-4-methyl)thieno[2,3-b]pyridine-2-carboxamide] |  | predicted clearance in the rat (CLHEP), in words [3]: high clearance; rCLHEP [3]: 55.2 mL/min/kg; EC50 [5]: > 30000 nM
Cc1cc(CNC(=O)c2sc3nc(C)c(Cl)c(C)c3c2N)ccn1 [Compound 6] | 7.21 ± 0.05 | 
Cc1nc2sc(C(=O)NC(C)c3cccnc3)c(N)c2c(C)c1Cl (centres unmarked) [Compound 8] | 6.17 ± 0.08 | 
Cc1nc2sc(C(=O)NC(C)c3ccccn3)c(N)c2c(C)c1Cl (centres unmarked) [Compound 10] | 5.86 ± 0.07 | 
Cc1nc2sc(C(=O)NCCc3ccncc3)c(N)c2c(C)c1Cl [Compound 11] | 6.89 ± 0.09 | 
Cc1nc2sc(C(=O)NCCc3ccccn3)c(N)c2c(C)c1Cl [Compound 13] | 6.07 ± 0.06 | 
Cc1nc2sc(C(=O)NCc3ccncn3)c(N)c2c(C)c1Cl [Compound 15] | 6.57 ± 0.06 | 
Cc1nc2sc(C(=O)NCc3ccnnc3)c(N)c2c(C)c1Cl [Compound 17] | 6.49 ± 0.08 | 
Cc1nc2sc(C(=O)NCc3ccc4c(c3)OCO4)c(N)c2c(C)c1Cl [Compound 18] | 7.09 ± 0.08 | 
Cc1nc2sc(C(=O)NCc3ccccc3)c(N)c2c(C)c1Cl [Compound 19] | 6.97 ± 0.05 | 
Cc1nc2sc(C(=O)NCc3ccc(F)c(F)c3)c(N)c2c(C)c1Cl [Compound 20] | 6.81 ± 0.28 | 
Cc1nc2sc(C(=O)NCc3ccccc3Cl)c(N)c2c(C)c1Cl [Compound 21] | 6.81 ± 0.07 | 
Cc1ccc(CNC(=O)c2sc3nc(C)c(Cl)c(C)c3c2N)cc1 [Compound 22] | 6.98 ± 0.10 | 
COc1nc2sc(C(=O)NC3CC3)c(N)c2c(C)c1Cl [LY2033298] |  | EC50 (human M4 receptor [6]; read-out: human M4 potency, human receptor): 65 nM; EC50 (rat M4 receptor): 629 nM
COc1ccc(C)c2sc(NC(=O)c3ccncc3)nc12 [ML293] |  | EC50 (human M4 receptor [6]; read-out: hM4 potency, previously reported probe, ref 9d): 1300 nM
